From patent US20260317312A1, “ISOXAZOLIDINES AS RIPK1 INHIBITORS AND USE THEREOF” (GENZYME CORPORATION, priority 2023, published 2026)

Key:
U937 cells = assay: Cellular assay in U937 cells to measure activity of RIPK1-inhibitors on cell death (necroptosis); type: cell-based; conditions: overnight (18 to 24 hrs), 37° C., MTS readout
Text: Upon TNF-Receptor I ligation, Ser/Thr kinase RIPK1 is recruited to a transient receptor complex I. Upon modification of RIPK1 which promotes activation of RIPK1, complex lib can form, that involves recruitment of RIPK3 and MLKL (mixed lineage-kinase domain-like protein) which then translocates from the cytosol to the plasma membrane to execute cell death (Cai, Z. et al, Nat. Cell Biol. (2014)16:55-65).
Cell death was quantified in 96 well plates by determination of the amount of live cell using a CellTiter 96 Aqueous reagent (Promega), a calorimetric method to measure the number of live cells by reducing tetrazolium compound [3-(4,5-dimethylthiazol-2-yl)-5-(3-carboxymethoxyphenyl)-2-(4-sulfophenyl)-2H-tetrazolium, inner salt; MTS] into formazan. Absorbance of formazan was read at 490 nm. The inhibitory activity of the test compound was quantified in a concentration response curve (CRC) experiment.
Compounds were obtained as 10 mM stock solutions and were diluted 1 to 10 volumes with DMSO to yield a 1 mM solution. From this solution 2 μl were diluted with 998 μl growth medium. 100 μl of 2 μM compound solution was further diluted sequentially with a dilution factor of 2.5 by adding 150 μl growth medium. A total of 10 concentrations were tested ranging from 10 μM to 0.26 nM or from 1 μM to 0.07 nM.
U937 cells were cultured in RPM11640 Glutamax and 10% heat inactivated FBS. 50 μl cell suspension containing 1×10^6 cells/ml supplemented with 50 μM zVAD.fmk (Benzyloxycarbonyl-Val-Ala-Asp (Ome) fluoromethylketone) and 100 ng/ml recombinant human TNFα were dispensed in each well of a 96-well plate. 50 μl of compound dilutions (described in Cellular assay in U937 cells) were added and the cell suspension incubated overnight (18 to 24 hrs) at 37° C., 5% CO2 in a humidified atmosphere (95% rH). High (no compound) and low control (no TNFα, zVAD.fmk) were tested with 7 replicates; all compound concentrations were tested in duplicates on each experimental plate.
CellTiter 96 Aqueous reagent was mixed (100 μl PMS (phenazine methosulfate) solution/2 ml MTS (3-(4,5-[…])-5-(3-carboxymethoxyphenyl)-2-(4-sulfophenyl)-2H-tetrazolium, inner salt) solution) and 20 μl were added per well. After 4 hrs incubation at 37° C. (5% CO2 95% rH) optical density was measured at 490 nm on a microplate reader (Tecan Infinite M1000).
The % inhibition is expressed as percentage of the maximal inhibition value obtained in the absence of TNFα/zVAD.fmc.

[1] = target: T1, hRIPK1 (aa 1-375) fusion protein (Homo sapiens, UniProt Q13546); assay: Receptor-Interacting Protein Kinase 1 inhibition, ADP Glo assay (conversion of ATP to ADP due to autophosphorylation); type: biochemical; conditions: ATP 50 μM, 30 min preincubation, 240 min incubation, room temperature, DMSO 1%
T1 construct: hRIPK1 (aa 1-375) fusion protein
T1 sequence (Q13546 1-375): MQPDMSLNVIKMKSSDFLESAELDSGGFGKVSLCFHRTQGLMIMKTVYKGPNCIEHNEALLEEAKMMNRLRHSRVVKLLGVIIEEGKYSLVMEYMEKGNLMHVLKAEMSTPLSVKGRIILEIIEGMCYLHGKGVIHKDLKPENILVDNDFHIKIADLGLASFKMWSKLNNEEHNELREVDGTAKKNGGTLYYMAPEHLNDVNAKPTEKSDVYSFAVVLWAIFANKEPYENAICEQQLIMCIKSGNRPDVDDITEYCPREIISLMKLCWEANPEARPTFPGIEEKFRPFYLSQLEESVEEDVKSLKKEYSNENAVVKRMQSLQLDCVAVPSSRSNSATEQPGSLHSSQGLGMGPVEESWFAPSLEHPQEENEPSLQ
Protocol: The catalytic activity of RIPK1 was measured by monitoring the conversion of Adenosine triphosphate (ATP) to Adenosine diphosphate (ADP) due to autophosphorylation using an ADP-Glo kinase kit (Promega, catalog no. V9104).
In detail, 2 μl recombinantly produced hRIPK1 (aa 1-375) fusion protein (end concentration 3.6 μg/ml) and 2 μl compound (end concentration 33300-1.69 nM; DMSO end concentration 1%) were incubated for 30 minutes at room temperature and then 2 μl ATP (ADP Glo kit, end concentration 50 μM) were added. After another 240 minutes incubation at room temperature, 5 μl Promega ADP-Glo reagent I was added to quench the reaction and deplete unconsumed ATP. After an incubation period of 30 minutes, 10 μl Promega ADP-Glo detection reagent II was added resulting in conversion of ADP to ATP, which generates a light-reaction between luciferase and luciferin. Luminescence was quantified after 30 minutes with a Pherastar FS (BMG LABTECH, Ortenberg).
The adjustment was obtained by nonlinear regression using the Levenberg Marquardt algorithm.

[2] = Homo sapiens, U-937, TNFα/zVAD.fmk induced cell death (necroptosis)
[3] = TNFα/zVAD.fmk induced cell death (necroptosis)

NC(=O)c1ccnc(C2CCC(C(=O)N3OCC[C@H]3c3cc(F)cc(F)c3)C2)c1 (single isomer, unassigned) [Compound 114]
IC50 (U937 cells; [2]): 816 nM | IC50 [1]: 132 nM

N#Cc1cc(F)cc([C@@H]2CCON2C(=O)C2CCC(COc3cc(C(N)=O)ncn3)C2)c1 (single isomer, unassigned) [Compound 115]
IC50 (U937 cells; [3]): 842 nM | IC50 [1]: 53 nM

N#Cc1cc(F)cc([C@@H]2CCON2C(=O)C2CCCC(COc3cc(C(N)=O)ncn3)CC2)c1 (single isomer, unassigned) [Compound 128]
IC50 (U937 cells; [3]): 691 nM | IC50 [1]: 20 nM

NC(=O)c1cc(OCC2CCC(C(=O)N3OCC[C@H]3c3cc(F)cc(F)c3)C2)ncn1 (single isomer, unassigned; stereoisomer 1) [Compound 118]
IC50 (U937 cells; [3]): 137 nM | IC50 [1]: 20 nM

NC(=O)c1cc(OCC2CCCC(C(=O)N3OCC[C@H]3c3cc(F)cc(F)c3)CC2)ncn1 (single isomer, unassigned; stereoisomer 1) [Compound 122]
IC50 (U937 cells; [3]): 30 nM | IC50 [1]: 17 nM

N#Cc1cc(F)cc([C@@H]2CCON2C(=O)C2CCCC(COc3cc(C(N)=O)ncn3)CC2)c1 (single isomer, unassigned; stereoisomer 1) [Compound 126]
IC50 (U937 cells; [3]): 54 nM | IC50 [1]: 25 nM

N#Cc1cc(F)cc([C@@H]2CCON2C(=O)C2CCC(COc3cc(C(N)=O)ncn3)C2)c1 (single isomer, unassigned; stereoisomer 2) [Compound 116]
IC50 (U937 cells; [3]): 377 nM | IC50 [1]: 23 nM

NC(=O)c1cc(OCC2CCC(C(=O)N3OCC[C@H]3c3cc(F)cc(F)c3)C2)ncn1 (single isomer, unassigned; stereoisomer 2) [Compound 119]
IC50 (U937 cells; [3]): 388 nM | IC50 [1]: 29 nM

NC(=O)c1cc(OCC2CCCC(C(=O)N3OCC[C@H]3c3cc(F)cc(F)c3)CC2)ncn1 (single isomer, unassigned; stereoisomer 2) [Compound 123]
IC50 (U937 cells; [3]): 24 nM | IC50 [1]: 14 nM

N#Cc1cc(F)cc([C@@H]2CCON2C(=O)C2CCCC(COc3cc(C(N)=O)ncn3)CC2)c1 (single isomer, unassigned; stereoisomer 2) [Compound 127]
IC50 (U937 cells; [3]): 31 nM | IC50 [1]: 17 nM

N#Cc1cc(F)cc([C@@H]2CCON2C(=O)C2CCC(COc3cc(C(N)=O)ncn3)C2)c1 (single isomer, unassigned; stereoisomer 3) [Compound 117]
IC50 (U937 cells; [3]): 675 nM | IC50 [1]: 50 nM

NC(=O)c1cc(OCC2CCC(C(=O)N3OCC[C@H]3c3cc(F)cc(F)c3)C2)ncn1 (single isomer, unassigned; stereoisomer 3) [Compound 120]
IC50 (U937 cells; [3]): 336 nM | IC50 [1]: 32 nM

NC(=O)c1cc(OCC2CCCC(C(=O)N3OCC[C@H]3c3cc(F)cc(F)c3)CC2)ncn1 (single isomer, unassigned; stereoisomer 3) [Compound 124]
IC50 (U937 cells; [3]): 81 nM | IC50 [1]: 21 nM

NC(=O)c1cc(OCC2CCC(C(=O)N3OCC[C@H]3c3cc(F)cc(F)c3)C2)ncn1 (single isomer, unassigned; stereoisomer 4) [Compound 121]
IC50 (U937 cells; [3]): 755 nM | IC50 [1]: 30 nM

NC(=O)c1cc(OCC2CCCC(C(=O)N3OCC[C@H]3c3cc(F)cc(F)c3)CC2)ncn1 (single isomer, unassigned; stereoisomer 4) [Compound 125]
IC50 (U937 cells; [3]): 347 nM | IC50 [1]: 39 nM

NC(=O)c1ccnc(N[C@H]2C[C@@H](C(=O)N3OCC[C@H]3c3cc(F)cc(F)c3)C2)n1 [Compound 1, cis-2-((3-((S)-3-(3,5-difluorophenyl)isoxazolidine-2-carbonyl)cyclobutyl)amino)pyrimidine-4-carboxamide]
IC50 (U937 cells; [2]): 34 nM | IC50 [1]: 19 nM

N#Cc1ccnc(N[C@H]2C[C@@H](C(=O)N3OCC[C@H]3c3cc(F)cc(F)c3)C2)n1 [Compound 2, cis-2-((3-((S)-3-(3,5-difluorophenyl)isoxazolidine-2-carbonyl)cyclobutyl)amino)pyrimidine-4-carbonitrile]
IC50 (U937 cells; [2]): 101 nM | IC50 [1]: 22 nM

COC(=O)c1ccnc(N[C@H]2C[C@@H](C(=O)N3OCC[C@H]3c3cc(F)cc(F)c3)C2)n1 [Compound 3, methyl cis-2-((3-((S)-3-(3,5-difluorophenyl)isoxazolidine-2-carbonyl)cyclobutyl)amino)pyrimidine-4-carboxylate]
IC50 (U937 cells; [2]): 536 nM | IC50 [1]: 47 nM

NC(=O)c1ccnc(N[C@H]2C[C@H](C(=O)N3OCC[C@H]3c3cc(F)cc(F)c3)C2)n1 [Compound 4, trans-2-((3-((S)-3-(3,5-difluorophenyl)isoxazolidine-2-carbonyl)cyclobutyl)amino)pyrimidine-4-carboxamide]
IC50 (U937 cells; [2]): 360 nM | IC50 [1]: 90 nM

C[C@]1(C(=O)N2OCC[C@H]2c2cc(F)cc(F)c2)C[C@@H](Nc2nccc(C#N)n2)C1 [Compound 5, cis-2-((3-((S)-3-(3,5-difluorophenyl)isoxazolidine-2-carbonyl)-3-methylcyclobutyl)amino)pyrimidine-4-carbonitrile]
IC50 (U937 cells; [2]): 75 nM | IC50 [1]: 38 nM

C[C@]1(C(=O)N2OCC[C@H]2c2cc(F)cc(F)c2)C[C@@H](Nc2nccc(C(N)=O)n2)C1 [Compound 6, cis-2-((3-((S)-3-(3,5-difluorophenyl)isoxazolidine-2-carbonyl)-3-methylcyclobutyl)amino)pyrimidine-4-carboxamide]
IC50 (U937 cells; [2]): 6 nM | IC50 [1]: 21 nM

C[C@]1(C(=O)N2OCC[C@H]2c2cncc(C#N)c2)C[C@@H](Nc2nccc(C(N)=O)n2)C1 [Compound 7, cis-2-((3-((S)-3-(5-cyanopyridin-3-yl)isoxazolidine-2-carbonyl)-3-methylcyclobutyl)amino)pyrimidine-4-carboxamide]
IC50 (U937 cells; [2]): 336 nM | IC50 [1]: 23 nM

CCOC(=O)c1ncnc(N[C@H]2C[C@@](C)(C(=O)N3OCC[C@H]3c3cc(F)cc(F)c3)C2)c1F [Compound 8, ethyl cis-6-((3-((S)-3-(3,5-difluorophenyl)isoxazolidine-2-carbonyl)-3-methylcyclobutyl)amino)-5-fluoropyrimidine-4-carboxylate]
IC50 (U937 cells; [2]): 196 nM | IC50 [1]: 25 nM

CCOC(=O)c1ncnc(Cl)c1N[C@H]1C[C@@](C)(C(=O)N2OCC[C@H]2c2cc(F)cc(F)c2)C1 [Compound 9, ethyl cis-6-chloro-5-((3-((S)-3-(3,5-difluorophenyl)isoxazolidine-2-carbonyl)-3-methylcyclobutyl)amino)pyrimidine-4-carboxylate]
IC50 (U937 cells; [2]): 757 nM | IC50 [1]: 366 nM

N#Cc1cc(F)cc([C@@H]2CCON2C(=O)[C@H]2CC[C@@H](Nc3cc(C#N)ncn3)CC2)c1 [Compound 28, cis-6-((4-((S)-3-(3-cyano-5-fluorophenyl)isoxazolidine-2-carbonyl)cyclohexyl)amino)pyrimidine-4-carbonitrile]
IC50 [1]: 162 nM
